According to patent US20260258049A1, “Molecules and Methods Related to Treatment of Uncontrolled Cellular Proliferation” (ST. JUDE CHILDREN'S RESEARCH HOSPITAL, priority 2019, published 2026):
Read-outs that look alike come from different tables or passages of the source.

How the values were obtained:
[1] = test system: MHH-CALL-4; test: Cytotoxicity assay (resazurin, 72 hours); format: cell-based, human
[2] = target: T1, JAK2 (Homo sapiens, UniProt O60674, I682F); test: Immunoblot protein degradation in MHH-CALL-4 cells; format: cell-based
T1 construct: degradation of JAK2 and GSPT1 in MHH-CALL-4 cells; endogenous in cells; host or cells: MHH-CALL-4
T1 sequence (O60674 whole entry I682F): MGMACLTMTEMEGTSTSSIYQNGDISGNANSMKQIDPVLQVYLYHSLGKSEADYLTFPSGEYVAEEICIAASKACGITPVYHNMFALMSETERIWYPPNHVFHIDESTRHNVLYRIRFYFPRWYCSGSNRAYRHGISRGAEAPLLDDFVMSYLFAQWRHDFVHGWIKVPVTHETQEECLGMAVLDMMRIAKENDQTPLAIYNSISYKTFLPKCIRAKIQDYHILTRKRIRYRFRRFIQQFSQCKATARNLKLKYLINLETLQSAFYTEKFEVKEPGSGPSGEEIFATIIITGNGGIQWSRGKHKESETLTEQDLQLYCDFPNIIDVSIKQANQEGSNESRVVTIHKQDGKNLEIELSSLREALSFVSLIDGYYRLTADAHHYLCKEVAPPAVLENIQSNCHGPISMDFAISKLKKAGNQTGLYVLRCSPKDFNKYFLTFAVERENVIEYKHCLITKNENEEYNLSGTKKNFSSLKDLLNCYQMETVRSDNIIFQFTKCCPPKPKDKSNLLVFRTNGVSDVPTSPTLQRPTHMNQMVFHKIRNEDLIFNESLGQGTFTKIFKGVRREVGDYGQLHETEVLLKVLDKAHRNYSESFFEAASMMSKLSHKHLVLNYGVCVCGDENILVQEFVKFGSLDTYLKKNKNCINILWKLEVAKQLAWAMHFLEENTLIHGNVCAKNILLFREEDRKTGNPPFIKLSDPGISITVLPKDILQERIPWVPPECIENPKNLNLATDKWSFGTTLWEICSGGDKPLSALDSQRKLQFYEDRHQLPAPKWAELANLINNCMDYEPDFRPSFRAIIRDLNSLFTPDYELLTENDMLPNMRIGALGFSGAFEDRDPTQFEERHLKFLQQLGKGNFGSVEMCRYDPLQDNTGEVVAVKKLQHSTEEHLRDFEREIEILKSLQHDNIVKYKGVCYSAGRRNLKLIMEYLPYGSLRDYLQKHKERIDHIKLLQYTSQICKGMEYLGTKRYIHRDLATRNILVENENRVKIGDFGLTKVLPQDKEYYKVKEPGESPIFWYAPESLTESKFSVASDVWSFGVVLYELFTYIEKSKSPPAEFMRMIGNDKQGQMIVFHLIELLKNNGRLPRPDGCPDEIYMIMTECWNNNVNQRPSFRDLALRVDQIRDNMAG

[3] = target: T2, GSPT1 (Homo sapiens, UniProt P15170); test: Immunoblot protein degradation in MHH-CALL-4 cells; format: cell-based
T2 construct: degradation of JAK2 and GSPT1 in MHH-CALL-4 cells; endogenous in cells; host or cells: MHH-CALL-4
T2 sequence (P15170 whole entry): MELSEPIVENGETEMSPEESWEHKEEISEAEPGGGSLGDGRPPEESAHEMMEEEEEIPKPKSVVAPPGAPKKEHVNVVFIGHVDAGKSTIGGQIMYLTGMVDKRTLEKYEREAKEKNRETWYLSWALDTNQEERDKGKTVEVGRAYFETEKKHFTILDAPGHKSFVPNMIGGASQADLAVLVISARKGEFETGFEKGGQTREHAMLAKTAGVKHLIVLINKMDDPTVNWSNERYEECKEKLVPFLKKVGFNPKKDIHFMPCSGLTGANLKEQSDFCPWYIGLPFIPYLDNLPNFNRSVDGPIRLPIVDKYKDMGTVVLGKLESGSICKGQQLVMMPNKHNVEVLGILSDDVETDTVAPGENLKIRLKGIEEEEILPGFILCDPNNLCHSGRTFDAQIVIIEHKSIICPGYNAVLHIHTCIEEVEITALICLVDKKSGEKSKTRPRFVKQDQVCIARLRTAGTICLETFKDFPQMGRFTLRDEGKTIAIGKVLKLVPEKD
Procedure: Cells were washed twice with ice-cold PBS and lysed in RIPA lysis buffer (Sigma) freshly supplemented with Halt™ Protease Inhibitor Cocktail (ThermoFisher) for 15 minutes on ice. The cell pellet was removed by centrifugation at 13,000 g at 4° C. for 15 minutes. Protein concentration was measured by BCA assay (Thermo Fisher Scientific). Proteins were denatured in NuPAGE LDS 4× sample buffer supplemented with reducing agents (Invitrogen). Typically, 10-20 µg of total protein was loaded per lane on a 4%-12% NuPAGE Bis-Tris gradient gel (Invitrogen) and analyzed by standard immunoblotting and imaged using Li-COR Odyssey CLx (LI-COR Biotechnology, Lincoln, NE). Primary antibodies used were: JAKI (Cell Signaling #3332S), JAK2 (#3230S), JAK3 (#8827S), TYK2 (#9312S), GSPT1 (#14980S), CRBN (#71810S), IKZF1 (Santa Cruz Biotechnology, SC-398265) and ACBT (Santa Cruz Biotechnology, SC-47778).

[4] = test system: Human CD45+ leukemic cells purified from patient derived xenografts (PDX)
[5] = test system: JAK-STAT5 signaling pathway; test: Phosphoflow analysis in MHH-CALL-4 cells with or without TSLP; format: cell-based, human; conditions: 1 μM, one hour before TSLP 25 ng/mL for 30 minutes
[6] = test system: Caco-2 cells; test: Caco-2 cell permeability; format: in vitro ADME
Procedure: Compound Caco-2 cell permeability was determined using the Transwell® 0.4 μm polycarbonate membrane 96-well as described before (Uchida, et al. (2009) J Pharmacol Toxicol Methods 59(1): 39-43). Briefly, Caco-2 cells monolayers were incubated over 2 hours at 37° C. Fractions were collected from receivers (basal side, B), and concentrations were assessed by UPLC/MS (Waters; Milford, MA). All compounds were tested in triplicates. The A→B (or B→A) apparent permeability coefficients (Papp) of each compound were calculated using the equation, Papp=dQ/dt×1/AC0, where dQ/dt equals the flux of a drug across the monolayer, A equals the total insert well surface area, and CO is the initial concentration of substrate in the donor compartment.

Row | extent of degradation of JAK2 [2] | extent of degradation of GSPT1 [3] | SMILES | killing of MHH-CALL-4 cells / cytotoxicity, in words [1] | cytotoxicity in PDX cells ex vivo [4] | further results
1 | minimal activity on either target | minimal activity on either target | CC(=O)NCCCNC(=O)COc1cccc2c1C(=O)N(C1CCC(=O)NC1=O)C2=O (stereo not shown) [Cmpd. no. 59] | relatively low activity |  | 
2 |  |  | CCS(=O)(=O)N1CC(CC#N)(n2cc(-c3nc(Nc4ccc(C(=O)NCCCCNc5cccc6c5C(=O)N(C5CCC(=O)NC5=O)C6=O)cc4)nc4[nH]ccc34)cn2)C1 (stereo not shown) [Compound 6] |  | show cytotoxicity | EC50 ([1]; Table 6, no star, read-out: HHCALL4 (nM), MHHCALL4 EC50): 1.52 nM; JAK inhibition (phosphoflow) [5]: comparable JAK inhibition
3 |  |  | CC(=O)Nc1cc(Oc2ccc3c(nc(Nc4ccc(F)cc4F)n3C)c2C)ccn1 [CHZ868, reference compound] |  | not | 
4 | minimal activity on either target | minimal activity on either target | CNCCCCNc1ccc2c(c1)C(=O)N(C1CCC(=O)NC1=O)C2=O (stereo not shown) [Cmpd. no. 80] | relatively low activity |  | 
5 |  |  | CCCn1cc(-c2nc(Nc3ccc(C(=O)NCCCCNc4cccc5c4C(=O)N(C4CCC(=O)NC4=O)C5=O)cc3)nc3[nH]ccc23)cn1 (stereo not shown) [SJ000988497] |  |  | Papp, Caco-2 assay [6]: 1.912 ×10⁻⁶ cm/s
6 |  | degradation of GSPT1 was observed | N#CC[C@H](C1CCCC1)n1cc(-c2nc(Nc3ccc(C(=O)NCCCCNc4cccc5c4C(=O)N(C4CCC(=O)NC4=O)C5=O)cc3)nc3[nH]ccc23)cn1 (stereo partly shown) [Compound 5] |  | show cytotoxicity | EC50 ([1]; Homo sapiens, MHHCALL4, Table 6, no star, read-out: HHCALL4 (nM), MHHCALL4 EC50): 784 nM; JAK inhibition (phosphoflow) [5]: comparable JAK inhibition
7 |  | preferential | CC(=O)NCCCNc1ccc2c(c1)C(=O)N(C1CCC(=O)NC1=O)C2=O (stereo not shown) [Cmpd. no. 53] | intermediately effective |  | 
8 | preferential |  | CNCCCN1CCN(c2ccc3c(c2)C(=O)N(C2CCC(=O)NC2=O)C3=O)CC1 (stereo not shown) [Cmpd. no. 56] | intermediately effective |  | 
9 |  |  | CCS(=O)(=O)N1CC(CC#N)(n2cc(-c3nc(Nc4ccc(C(=O)NCCN5CCN(c6ccc7c(c6)C(=O)N(C6CCC(=O)NC6=O)C7=O)CC5)cc4)nc4[nH]ccc34)cn2)C1 (stereo not shown) [Compound 8] | intermediately effective |  | killing of MHH-CALL-4 cells / cytotoxicity, in words ([1]; listed as compound 8): reduced activity
10 |  |  | N#CC[C@H](C1CCCC1)n1cc(-c2ncnc3[nH]ccc23)cn1 [Ruxolitinib, reference compound] |  |  | EC50 ([1]; Homo sapiens, MHHCALL4, read-out: HHCALL4 (nM), MHHCALL4 EC50): 5800 nM
